In patent US20230129034A1, “TREATMENT OF DISEASE WITH ESTERS OF SELECTIVE RXR AGONISTS” (Io Therapeutics, Inc., priority 2017, published 2023):

Experiments:
[1] = system: experimental autoimmune encephalomyelitis (EAE) in C57BL/6 (B6) mice; experiment: EAE in C57BL/6 (B6) mice, MOG peptide induced; type: in vivo; details: 50 µg i.p. every other day from day 7
Method: Mice were also given 200 ng of pertussis toxin in PBS administered by inter-peritoneal (i.p.) injection on the same day as MOG emulsion injection (day 0) and 2 days later (day 2). […] Mice were scored using the following scale: 0 - Mice have no disease, 1 -Mice have distal limp tail or rear leg weakness (paresis), 1.5 - Mice have distal limp tail and rear leg weakness, 2 - Mice have complete limp tail and rear leg weakness, 2.5 - Mice have complete limp tail and weakness in both rear legs, 3 - Mice have complete limp tail and paralysis in both rear legs, 3.5 - Mice have complete limp tail, paralysis in both rear legs, and forelimb weakness. Mice receiving a score of 3.5 were immediately euthanized.

Th17 cells = experiment: Th17 cell differentiation / IL-17 production in vitro; type: cell-based
Nurr1/RXR heterodimer = molecular target: T1, Nurr1/RXR heterodimer (Homo sapiens, UniProt P19793); experiment: Nurr1/RXR transactivation assay, COS7 cells, 3xNBRE-tk-luc; type: cell-based; details: for activation of the Nurr1/RXR heterodimer: COS7 cells, 20 hr
T1 construct: full length Nurr-1 with or without full-length RXRα plasmid; expressed in transfected cells; host or cells: COS7
T1 sequence (P19793 whole entry): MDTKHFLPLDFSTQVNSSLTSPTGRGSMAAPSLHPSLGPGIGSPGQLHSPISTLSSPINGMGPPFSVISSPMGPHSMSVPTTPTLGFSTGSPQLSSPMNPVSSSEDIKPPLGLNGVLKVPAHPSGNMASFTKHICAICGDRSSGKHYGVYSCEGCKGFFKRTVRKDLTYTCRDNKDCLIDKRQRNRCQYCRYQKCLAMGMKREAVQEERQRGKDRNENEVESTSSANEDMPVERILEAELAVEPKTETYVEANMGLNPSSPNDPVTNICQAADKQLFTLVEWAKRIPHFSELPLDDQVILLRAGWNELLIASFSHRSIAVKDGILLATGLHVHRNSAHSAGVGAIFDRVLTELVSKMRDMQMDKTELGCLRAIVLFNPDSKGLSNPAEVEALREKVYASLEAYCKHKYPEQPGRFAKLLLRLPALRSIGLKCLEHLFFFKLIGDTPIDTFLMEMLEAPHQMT
T1 sequence (P43354 whole entry partner): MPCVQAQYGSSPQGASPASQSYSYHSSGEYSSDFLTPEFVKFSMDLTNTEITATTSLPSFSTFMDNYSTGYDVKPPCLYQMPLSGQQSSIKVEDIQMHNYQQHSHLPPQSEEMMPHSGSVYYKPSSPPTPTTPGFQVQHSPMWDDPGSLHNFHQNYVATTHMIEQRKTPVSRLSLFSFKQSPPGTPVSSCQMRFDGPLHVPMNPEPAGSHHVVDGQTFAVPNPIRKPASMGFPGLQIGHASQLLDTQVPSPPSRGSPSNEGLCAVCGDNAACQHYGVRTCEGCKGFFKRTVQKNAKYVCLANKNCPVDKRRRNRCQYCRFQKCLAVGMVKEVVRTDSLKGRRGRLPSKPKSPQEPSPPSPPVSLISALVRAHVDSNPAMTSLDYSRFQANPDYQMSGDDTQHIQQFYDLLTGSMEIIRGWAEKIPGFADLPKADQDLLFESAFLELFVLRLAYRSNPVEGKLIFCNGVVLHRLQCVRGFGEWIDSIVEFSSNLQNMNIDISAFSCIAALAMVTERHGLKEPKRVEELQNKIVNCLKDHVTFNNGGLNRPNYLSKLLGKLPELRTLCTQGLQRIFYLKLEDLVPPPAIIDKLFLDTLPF
Excerpt: For PPARy: CV-1 cells were transfected with 3x(rAOX/DR1)-tk-Luc reporter gene and an expression vector for PPARy. For FXR:CV-1 cells were transfected with 3x(IBABP/IRI)-tk-Luc reporter gene and vectors for FXR and RXRα. For LXR:CV-1 cells were transfected with 3x(PLTP/LXRE)-tk-Luc reporter gene with vectors for LXRα or LXRβ. For Nurr1: COS7 cells were transfected with 3xNBRE-tk-luc reporter gene and full length Nurr-1 with or without full-length RXRα plasmid. […] Luciferase data were normalized to co-transfected β-gal activity. Luciferase activity was expressed as percent of maximal activity obtained using specific agonists. Rosiglitazone (PPARy), GW4064 (FXR), T0901317 (LXR).

Treg cells = experiment: Treg cell differentiation in in vitro cell culture; type: cell-based
EAE in SJL mice = experiment: EAE in SJL mice, PLP peptide induced; type: in vivo; details: for symptoms of EAE in SJL mice: 50 µg i.p. every other day from day 7
Method: To determine whether a RXR agonist or an ester of a RXR agonist can attenuate multiple sclerosis, SJL mice were immunized to induce EAE by s.c. injection at the base of their spine with 200 µL of adjuvant containing 200 µg proteolipid proteins (139-151) (PLP peptide; Peptides International, Louisville, KY) and 400 µg of non-viable M. tuberculosis H37 desiccate emulsified in a mixture of incomplete Freund’s adjuvant and PBS. Mice were also given 150 ng of pertussis toxin in PBS i.p. on the same day as PLP emulsion injection and 2 days later. […] Mice were scored using the scale described in Example 6.

[2] = system: CNS infiltrating leukocytes in C57BL/6 (B6) mice; experiment: CNS infiltrating cells in EAE B6 mice (flow cytometry, day 20); type: in vivo; details: day 20 after immunization
Method: To determine whether a RXR agonist can reduce central nervous system (CNS) infiltrating cells, C57BL/6 (B6) mice were treated as described in Example 6. On day 20 after immunization, mice were sacrificed and perfused with phosphate buffered saline (PBS). Brain and spinal cord tissue was isolated, digested with DNase and LIBERASE DL® (Roche Diagnostics, Indianapolis, IN) for 30 minutes, and homogenized through 70 micron nylon mesh filters. Resulting cells were placed over a Percoll gradient to remove myelin. The remaining cells (microglia and CNS infiltrating cells) were counted, stained for molecules of interest, and run on a flow cytometer. Based on the frequencies obtained by FACS of these cell populations, total cell numbers of CNS infiltrating leukocytes expressing CD45, including CD4^+ T cells and CD11c^+ CD11b^+ myeloid dendritic cells (DC), were calculated.

[3] = 50 µg i.p. every other day from day 7, n=6

| Compound | symptoms of EAE (disease severity score) [1] | production of IL-17 (Th17 cells; 1 nM) | concentration at which transactivation of the Nurr1/RXR heterodimer is apparent (Nurr1/RXR heterodimer) | concentration sufficient to achieve full activation of Nurr1/RXR (Nurr1/RXR heterodimer) | activation of the Nurr1/RXR heterodimer (Nurr1/RXR heterodimer) | formation of Treg cells (Treg cells; 1 nM) | symptoms of EAE in SJL mice (EAE in SJL mice) | Death from Disease (EAE in SJL mice; [3]) | Disease Incidence (EAE in SJL mice; [3]) | Mean Maximum Score (EAE in SJL mice; [3]) | infiltration of CD4+ cells into the CNS [2] | infiltration of CD11c+ CD11b+ cells (myeloid DC) into the CNS [2] | inhibiting the differentiation of Th17 cells, relative to parent form (Th17 cells; in vitro cell culture) | promoting the differentiation of Treg cells, relative to parent form (Treg cells; in vitro cell culture) |
| --- | --- | --- | --- | --- | --- | --- | --- | --- | --- | --- | --- | --- | --- | --- |
| CC(/C=C/[C@@H]1C[C@]1(C)c1ccc2c(c1)C(C)(C)CCC2(C)C)=C\C(=O)O [IRX4204, 3,7-dimethyl-6(S),7(S)-methano,7-[1,1,4,4-tetramethyl-1,2,3,4-tetrahydronaphth-7-yl]2(E),4(E) heptadienoic acid] | significantly reduces the symptoms of EAE | profoundly inhibits production of IL-17 | 100 pM | 1 nM | selectively activates | substantially enhances the formation of Treg cells | significantly reduces the symptoms of EAE | 0/6 | 4/6 | 1.5 ± 1.4 | significant reduction | significant reduction | – | – |
| CCOC(=O)/C=C(C)/C=C/[C@@H]1C[C@]1(C)c1ccc2c(c1)C(C)(C)CCC2(C)C [IRX4204EE, 3,7-dimethyl-6(S),7(S)-methano,7-[1,1,4,4-tetramethyl-1,2,3,4-tetrahydronaphth-7-yl]2(E),4(E) heptadienoic ethyl ester] | more effective than IRX4204 | – | – | – | very little activity | – | greater efficacy than IRX4204 | – | – | – | even greater reduction | even greater reduction | less active than its parent form | less active than its parent form |
